Laboratory results from publication PMC3037034 (ACS Medicinal Chemistry Letters, 2010).

Experiments:
human COX-2 = biological target: T1, human COX-2 (Homo sapiens, UniProt P35354); assay: purified COX-2 inhibition, TLC assay; format: biochemical; settings: for COX-2 inhibitory activity (in words): purified COX-2
T1 sequence (P35354 18-604): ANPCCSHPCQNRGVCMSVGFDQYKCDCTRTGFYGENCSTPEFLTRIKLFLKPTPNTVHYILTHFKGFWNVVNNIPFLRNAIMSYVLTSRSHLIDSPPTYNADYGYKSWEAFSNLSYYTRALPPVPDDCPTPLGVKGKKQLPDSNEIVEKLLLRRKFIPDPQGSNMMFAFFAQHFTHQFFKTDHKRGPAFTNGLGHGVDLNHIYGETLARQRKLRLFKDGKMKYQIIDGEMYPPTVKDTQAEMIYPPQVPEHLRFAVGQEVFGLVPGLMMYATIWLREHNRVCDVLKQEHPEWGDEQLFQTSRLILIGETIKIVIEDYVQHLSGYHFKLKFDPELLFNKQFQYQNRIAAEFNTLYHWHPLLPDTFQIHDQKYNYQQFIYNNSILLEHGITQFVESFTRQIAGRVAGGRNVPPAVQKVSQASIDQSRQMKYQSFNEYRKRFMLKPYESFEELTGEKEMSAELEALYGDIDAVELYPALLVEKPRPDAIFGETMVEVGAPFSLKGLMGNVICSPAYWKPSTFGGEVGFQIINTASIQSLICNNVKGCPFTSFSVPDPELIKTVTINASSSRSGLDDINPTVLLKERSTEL

ovine COX-1 = biological target: T2, ovine COX-1 (Ovis aries, UniProt P05979); assay: purified COX-1 inhibition, TLC assay; format: biochemical; settings: at concentrations up to 5 μM
T2 sequence (P05979 25-600): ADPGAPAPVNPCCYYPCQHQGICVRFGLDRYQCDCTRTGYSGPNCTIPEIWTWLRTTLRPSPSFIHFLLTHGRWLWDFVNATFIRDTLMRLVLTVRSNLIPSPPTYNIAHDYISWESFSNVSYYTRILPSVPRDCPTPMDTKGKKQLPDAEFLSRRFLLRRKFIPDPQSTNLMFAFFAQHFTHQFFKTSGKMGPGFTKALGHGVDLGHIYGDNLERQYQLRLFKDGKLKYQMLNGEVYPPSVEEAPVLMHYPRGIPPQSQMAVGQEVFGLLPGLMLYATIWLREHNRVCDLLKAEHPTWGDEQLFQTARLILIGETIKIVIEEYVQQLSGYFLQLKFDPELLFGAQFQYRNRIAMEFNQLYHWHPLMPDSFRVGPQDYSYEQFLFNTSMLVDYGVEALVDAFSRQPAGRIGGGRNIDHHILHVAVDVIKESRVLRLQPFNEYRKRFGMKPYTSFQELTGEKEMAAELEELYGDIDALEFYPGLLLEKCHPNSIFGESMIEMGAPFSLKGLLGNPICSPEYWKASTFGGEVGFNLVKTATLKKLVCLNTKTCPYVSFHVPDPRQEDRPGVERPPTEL

Compound	IC50 (human COX-2)	inhibition of COX-1 (in words) (ovine COX-1)	COX-2 inhibitory activity (in words) (human COX-2)
CS(=O)(=O)c1ccc(-n2nc(C(F)(F)F)cc2-c2ccc(I)cc2)cc1 [compound 8, 5-(4-iodophenyl)-1-{4-(methylsulfonyl)phenyl}-3-(trifluoromethyl)-1H-pyrazole]	0.05 µM	without inhibition	
COC(=O)c1cc(-c2cccc(I)c2)n(-c2ccc(S(C)(=O)=O)cc2)n1 [compound 9]	> 4 µM		
COC(=O)c1cc(-c2ccc(I)cc2)n(-c2ccc(S(C)(=O)=O)cc2)n1 [compound 10]	3 µM		
NS(=O)(=O)c1ccc(-n2nc(CCC(=O)O)cc2-c2ccc(I)cc2)cc1 [compound 6]	> 4 µM		inactive
COC(=O)c1cc(-c2ccc(I)cc2)n(-c2ccc(S(N)(=O)=O)cc2)n1 [compound 3]	0.56 µM		
CS(=O)(=O)c1ccc(-n2nc(C(F)(F)F)cc2-c2cccc(I)c2)cc1 [compound 7]	0.32 µM		
CCOC(=O)c1cc(-c2ccc(I)cc2)n(-c2ccc(S(N)(=O)=O)cc2)n1 [compound 4]	0.26 µM		
NS(=O)(=O)c1ccc(-n2nc(CCC(=O)O)cc2-c2cccc(I)c2)cc1 [compound 5]	> 4 µM		inactive
COC(=O)c1cc(-c2cccc(I)c2)n(-c2ccc(S(N)(=O)=O)cc2)n1 [compound 2]	3.8 µM		
